Reference: ChEMBL document CHEMBL1145222, “Synthesis and in vitro study of novel Mannich bases as antibacterial agents” (2005)

These compounds were tested on Salmonella enterica subsp. enterica serovar Typhi (assay: Zone of inhibition of Salmonella typhae at compound concentration of 80 mg/mL).
Type: functional

In order of rising Inhibition:
1. Cc1cc(NS(=O)(=O)c2ccc(N)cc2)no1 [SULFAMETHOXAZOLE]  9 mm
2. COc1ccc(Cl)cc1C(=O)NCNc1ccc(S(=O)(=O)[N-]C(C)=O)cc1.[Na+]  14.5 mm

These compounds were tested on Klebsiella pneumoniae (assay: Zone of inhibition of Klebsiella pneumoniae at compound concentration of 40 mg/mL).
Type: functional

In order of rising Inhibition:
1. COc1ccc(Cl)cc1C(=O)NCN(C)C  7 mm
2. Cc1cc(NS(=O)(=O)c2ccc(N)cc2)no1 [SULFAMETHOXAZOLE]  8.5 mm
3. COc1ccc(Cl)cc1C(=O)NCNc1ccc(S(=O)(=O)[N-]C(C)=O)cc1.[Na+]  10 mm
4. COc1ccc(Cl)cc1C(=O)NCN1CCOCC1  10.5 mm

These compounds were tested on Salmonella enterica subsp. enterica serovar Typhi (assay: Zone of inhibition of Salmonella typhae at compound concentration of 40 mg/mL).
Type: functional

In order of rising Inhibition:
1. Cc1cc(NS(=O)(=O)c2ccc(N)cc2)no1 [SULFAMETHOXAZOLE]  8.5 mm
2. COc1ccc(Cl)cc1C(=O)NCNc1ccc(S(=O)(=O)[N-]C(C)=O)cc1.[Na+]  10.5 mm

Each compound was assayed on Pseudomonas aeruginosa (assay: Zone of inhibition of Pseudomonas aeruginosa at compound concentration of 160 mg/mL).
Type: functional

In order of falling Inhibition:
1. COc1ccc(Cl)cc1C(=O)NCNc1ccc(S(=O)(=O)[N-]C(C)=O)cc1.[Na+]  14.5 mm
2. COc1ccc(Cl)cc1C(=O)NCN1CCOCC1  12 mm
3. COc1ccc(Cl)cc1C(=O)NCN(C)C  7.5 mm

These compounds were tested on Klebsiella pneumoniae (assay: Zone of inhibition of Klebsiella pneumoniae at compound concentration of 160 mg/mL).
Type: functional

In order of rising Inhibition:
1. COc1ccc(Cl)cc1C(=O)NCN(C)C  7.5 mm
2. Cc1cc(NS(=O)(=O)c2ccc(N)cc2)no1 [SULFAMETHOXAZOLE]  11.5 mm
3. COc1ccc(Cl)cc1C(=O)NCN1CCOCC1  14.5 mm
4. COc1ccc(Cl)cc1C(=O)NCNc1ccc(S(=O)(=O)[N-]C(C)=O)cc1.[Na+]  15.5 mm

The compounds below were run on Klebsiella pneumoniae (assay: Zone of inhibition of Klebsiella pneumoniae at compound concentration of 80 mg/mL).
Type: functional

In order of falling Inhibition:
1. COc1ccc(Cl)cc1C(=O)NCN1CCOCC1  12.5 mm
2. COc1ccc(Cl)cc1C(=O)NCNc1ccc(S(=O)(=O)[N-]C(C)=O)cc1.[Na+]  12.5 mm
3. Cc1cc(NS(=O)(=O)c2ccc(N)cc2)no1 [SULFAMETHOXAZOLE]  9 mm
4. COc1ccc(Cl)cc1C(=O)NCN(C)C  7.5 mm

These compounds were tested on Escherichia coli (assay: Zone of inhibition of Escherichia coli at compound concentration of 40 mg/mL).
Type: functional

In order of falling Inhibition:
1. Cc1cc(NS(=O)(=O)c2ccc(N)cc2)no1 [SULFAMETHOXAZOLE]  18.5 mm
2. COc1ccc(Cl)cc1C(=O)NCN1CCOCC1  9.5 mm

The compounds below were run on Staphylococcus aureus (assay: Zone of inhibition of Staphylococcus aureus at compound concentration of 80 mg/mL).
Type: functional

In order of falling Inhibition:
1. CC(=O)[N-]S(=O)(=O)c1ccc(N)cc1.[Na+]  21 mm
2. Cc1cc(NS(=O)(=O)c2ccc(N)cc2)no1 [SULFAMETHOXAZOLE]  20.5 mm
3. COc1ccc(Cl)cc1C(=O)NCNc1ccc(S(=O)(=O)[N-]C(C)=O)cc1.[Na+]  14.5 mm
4. COc1ccc(Cl)cc1C(=O)NCN1CCOCC1  13.5 mm

The compounds below were run on Escherichia coli (assay: Zone of inhibition of Escherichia coli at compound concentration of 80 mg/mL).
Type: functional

In order of rising Inhibition:
1. COc1ccc(Cl)cc1C(=O)NCN1CCOCC1  10.5 mm
2. Cc1cc(NS(=O)(=O)c2ccc(N)cc2)no1 [SULFAMETHOXAZOLE]  20.5 mm

What follows are compounds tested on Bacillus subtilis (assay: Zone of inhibition of Bacillus subtilis at compound concentration of 80 mg/mL).
Type: functional

In order of rising Inhibition:
1. COc1ccc(Cl)cc1C(=O)NCN(CCO)CCO  7.5 mm
2. COc1ccc(Cl)cc1C(=O)NCN1CCOCC1  9 mm
3. CC(=O)[N-]S(=O)(=O)c1ccc(N)cc1.[Na+]  10 mm
4. COc1ccc(Cl)cc1C(=O)NCNc1ccc(S(=O)(=O)[N-]C(C)=O)cc1.[Na+]  12.5 mm
5. Cc1cc(NS(=O)(=O)c2ccc(N)cc2)no1 [SULFAMETHOXAZOLE]  18.5 mm

Each compound was assayed on Escherichia coli (assay: Zone of inhibition of Escherichia coli at compound concentration of 160 mg/mL).
Type: functional

COc1ccc(Cl)cc1C(=O)NCN1CCOCC1 was tested, and the Inhibition was 12.5 mm.

What follows are compounds tested on Klebsiella pneumoniae (assay: Zone of inhibition Klebsiella pneumoniae at compound concentration of 80 mg/mL).
Type: functional

COc1ccc(Cl)cc1C(=O)NCN(CCO)CCO was tested, and the Inhibition was 7.5 mm.

The compounds below were run on Pseudomonas aeruginosa (assay: Zone of inhibition of Pseudomonas aeruginosa at compound concentration of 80 mg/mL).
Type: functional

In order of falling Inhibition:
1. COc1ccc(Cl)cc1C(=O)NCNc1ccc(S(=O)(=O)[N-]C(C)=O)cc1.[Na+]  12.5 mm
2. COc1ccc(Cl)cc1C(=O)NCN1CCOCC1  10.5 mm
3. COc1ccc(Cl)cc1C(=O)NCN(C)C  7.5 mm

The compounds below were run on Escherichia coli (assay: Zone of inhibition Escherichia coli at compound concentration of 160 mg/mL).
Type: functional

In order of rising Inhibition:
1. COc1ccc(Cl)cc1C(=O)NCN(CCO)CCO  8.5 mm
2. COc1ccc(Cl)cc1C(=O)NCNc1ccc(S(=O)(=O)[N-]C(C)=O)cc1.[Na+]  13 mm

These compounds were tested on Bacillus subtilis (assay: Zone of inhibition of Bacillus subtilis at compound concentration of 160 mg/mL).
Type: functional

In order of rising Inhibition:
1. COc1ccc(Cl)cc1C(=O)NCN(CCO)CCO  8.5 mm
2. COc1ccc(Cl)cc1C(=O)NCN1CCOCC1  10.5 mm
3. CC(=O)[N-]S(=O)(=O)c1ccc(N)cc1.[Na+]  15 mm
4. COc1ccc(Cl)cc1C(=O)NCNc1ccc(S(=O)(=O)[N-]C(C)=O)cc1.[Na+]  16.5 mm
5. Cc1cc(NS(=O)(=O)c2ccc(N)cc2)no1 [SULFAMETHOXAZOLE]  20 mm

Each compound was assayed on Staphylococcus aureus (assay: Zone of inhibition of Staphylococcus aureus at compound concentration of 160 mg/mL).
Type: functional

In order of rising Inhibition:
1. COc1ccc(Cl)cc1C(=O)NCN1CCOCC1  16.5 mm
2. Cc1cc(NS(=O)(=O)c2ccc(N)cc2)no1 [SULFAMETHOXAZOLE]  21 mm
3. COc1ccc(Cl)cc1C(=O)NCNc1ccc(S(=O)(=O)[N-]C(C)=O)cc1.[Na+]  22 mm
4. CC(=O)[N-]S(=O)(=O)c1ccc(N)cc1.[Na+]  24 mm

The compounds below were run on Bacillus subtilis (assay: Zone of inhibition of Bacillus subtilis at compound concentration of 40 mg/mL).
Type: functional

In order of rising Inhibition:
1. COc1ccc(Cl)cc1C(=O)NCN(CCO)CCO  7 mm
2. COc1ccc(Cl)cc1C(=O)NCN1CCOCC1  8.5 mm
3. CC(=O)[N-]S(=O)(=O)c1ccc(N)cc1.[Na+]  9.5 mm
4. COc1ccc(Cl)cc1C(=O)NCNc1ccc(S(=O)(=O)[N-]C(C)=O)cc1.[Na+]  10.5 mm
5. Cc1cc(NS(=O)(=O)c2ccc(N)cc2)no1 [SULFAMETHOXAZOLE]  15.5 mm

These compounds were tested on Salmonella enterica subsp. enterica serovar Typhi (assay: Zone of inhibition of Salmonella typhae at compound concentration of 160 mg/mL).
Type: functional

In order of falling Inhibition:
1. COc1ccc(Cl)cc1C(=O)NCNc1ccc(S(=O)(=O)[N-]C(C)=O)cc1.[Na+]  22 mm
2. Cc1cc(NS(=O)(=O)c2ccc(N)cc2)no1 [SULFAMETHOXAZOLE]  12.5 mm

These compounds were tested on Pseudomonas aeruginosa (assay: Zone of inhibition of Pseudomonas aeruginosa at compound concentration of 40 mg/mL).
Type: functional

In order of falling Inhibition:
1. COc1ccc(Cl)cc1C(=O)NCN1CCOCC1  9.5 mm
2. COc1ccc(Cl)cc1C(=O)NCNc1ccc(S(=O)(=O)[N-]C(C)=O)cc1.[Na+]  9.5 mm
3. COc1ccc(Cl)cc1C(=O)NCN(C)C  7 mm

The compounds below were run on Klebsiella pneumoniae (assay: Zone of inhibition Klebsiella pneumoniae at compound concentration of 160 mg/mL).
Type: functional

COc1ccc(Cl)cc1C(=O)NCN(CCO)CCO showed an Inhibition of 7.5 mm.

Each compound was assayed on Klebsiella pneumoniae (assay: Zone of inhibition Klebsiella pneumoniae at compound concentration of 40 mg/mL).
Type: functional

Compound COc1ccc(Cl)cc1C(=O)NCN(CCO)CCO has an Inhibition of 7 mm.

These compounds were tested on Escherichia coli (assay: Zone of inhibition Escherichia coli at compound concentration of 40 mg/mL).
Type: functional

In order of falling Inhibition:
1. COc1ccc(Cl)cc1C(=O)NCNc1ccc(S(=O)(=O)[N-]C(C)=O)cc1.[Na+]  9.5 mm
2. COc1ccc(Cl)cc1C(=O)NCN(CCO)CCO  7 mm

What follows are compounds tested on Escherichia coli (assay: Zone of inhibition Escherichia coli at compound concentration of 80 mg/mL).
Type: functional

In order of rising Inhibition:
1. COc1ccc(Cl)cc1C(=O)NCN(CCO)CCO  7.5 mm
2. COc1ccc(Cl)cc1C(=O)NCNc1ccc(S(=O)(=O)[N-]C(C)=O)cc1.[Na+]  10.5 mm

These compounds were tested on Staphylococcus aureus (assay: Zone of inhibition of Staphylococcus aureus at compound concentration of 40 mg/mL).
Type: functional

In order of falling Inhibition:
1. Cc1cc(NS(=O)(=O)c2ccc(N)cc2)no1 [SULFAMETHOXAZOLE]  19.5 mm
2. CC(=O)[N-]S(=O)(=O)c1ccc(N)cc1.[Na+]  19.5 mm
3. COc1ccc(Cl)cc1C(=O)NCN1CCOCC1  11 mm
4. COc1ccc(Cl)cc1C(=O)NCNc1ccc(S(=O)(=O)[N-]C(C)=O)cc1.[Na+]  10.5 mm
